Assay results reported in ChEMBL document CHEMBL2073781, “Organ distribution of multidrug resistance proteins 1, 2, and 3 (Mrp1, 2, and 3) mRNA and hepatic induction of Mrp3 by constitutive androstane receptor activators in rats” (J Pharmacol Exp Ther, 2002).

Molecular target: ATP-binding cassette sub-family C member 2 (Rattus norvegicus, UniProt Q63120)
Experiment: TP_TRANSPORTER: Branched DNA assay in vivo SD rat, kidney
Type: functional, organism-based, Sprague-Dawley

ATP-binding cassette sub-family C member 2, sequence (Q63120 whole entry): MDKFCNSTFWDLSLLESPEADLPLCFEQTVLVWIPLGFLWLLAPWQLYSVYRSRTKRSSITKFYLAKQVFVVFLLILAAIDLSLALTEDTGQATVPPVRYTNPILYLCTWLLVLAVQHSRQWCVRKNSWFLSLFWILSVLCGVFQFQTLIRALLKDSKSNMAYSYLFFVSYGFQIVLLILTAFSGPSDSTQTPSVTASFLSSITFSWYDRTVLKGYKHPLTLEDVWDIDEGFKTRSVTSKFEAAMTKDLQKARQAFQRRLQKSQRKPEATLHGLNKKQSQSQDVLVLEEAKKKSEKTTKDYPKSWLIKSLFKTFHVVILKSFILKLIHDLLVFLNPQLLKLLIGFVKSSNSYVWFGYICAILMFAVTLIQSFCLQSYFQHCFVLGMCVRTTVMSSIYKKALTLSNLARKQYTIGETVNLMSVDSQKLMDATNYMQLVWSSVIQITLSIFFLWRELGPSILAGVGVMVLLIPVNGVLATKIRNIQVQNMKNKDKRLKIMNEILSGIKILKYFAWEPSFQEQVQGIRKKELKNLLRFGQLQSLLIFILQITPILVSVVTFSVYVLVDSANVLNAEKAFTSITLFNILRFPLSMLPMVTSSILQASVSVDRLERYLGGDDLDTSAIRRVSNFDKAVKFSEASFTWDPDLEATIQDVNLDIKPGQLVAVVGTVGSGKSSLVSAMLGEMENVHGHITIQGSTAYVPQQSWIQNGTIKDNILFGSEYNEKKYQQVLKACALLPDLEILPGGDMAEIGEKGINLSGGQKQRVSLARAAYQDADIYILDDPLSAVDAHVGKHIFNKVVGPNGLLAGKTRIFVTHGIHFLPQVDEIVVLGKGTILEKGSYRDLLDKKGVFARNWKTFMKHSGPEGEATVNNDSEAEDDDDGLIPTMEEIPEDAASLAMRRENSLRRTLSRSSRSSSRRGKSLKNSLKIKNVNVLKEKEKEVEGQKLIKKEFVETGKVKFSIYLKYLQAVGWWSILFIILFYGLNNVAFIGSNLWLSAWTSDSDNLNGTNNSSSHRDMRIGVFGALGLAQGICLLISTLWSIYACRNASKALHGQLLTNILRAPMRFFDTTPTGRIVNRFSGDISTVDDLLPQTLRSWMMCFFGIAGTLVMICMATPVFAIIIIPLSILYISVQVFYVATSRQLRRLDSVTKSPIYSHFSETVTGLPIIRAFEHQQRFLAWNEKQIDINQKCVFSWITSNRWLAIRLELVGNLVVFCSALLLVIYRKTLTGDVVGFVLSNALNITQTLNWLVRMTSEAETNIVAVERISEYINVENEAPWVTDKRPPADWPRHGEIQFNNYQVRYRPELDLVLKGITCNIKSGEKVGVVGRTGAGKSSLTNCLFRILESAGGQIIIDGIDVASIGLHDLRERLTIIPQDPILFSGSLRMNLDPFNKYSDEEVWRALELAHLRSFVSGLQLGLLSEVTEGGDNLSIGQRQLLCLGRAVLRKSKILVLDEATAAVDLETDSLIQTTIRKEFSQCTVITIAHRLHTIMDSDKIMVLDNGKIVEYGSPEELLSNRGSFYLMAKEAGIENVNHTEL

Q: `O=c1cc(-c2ccccc2)oc2ccc3ccccc3c12` [BETA-NAPHTHOFLAVONE] was tested. Which Activity did it give?
A: inducer [+]

Q: For `CCCC[C@@H](CC)COC(=O)c1ccccc1C(=O)OC[C@@H](CC)CCCC` [BIS(2-ETHYLHEXYL)PHTHALATE], which Activity is on record?
A: inducer [+]

Q: How did the Activity turn out when `OCc1c[nH]c2ccccc12` [INDOLE-3-CARBINOL] was run?
A: inducer [+]

Q: For `CN(N=O)C(=O)N[C@@H](C=O)[C@@H](O)[C@H](O)[C@H](O)CO` [STREPTOZOCIN], which Activity is on record?
A: inducer [+]
